Reference: US5104895A, “Platinum(II) complexes, their preparation and use as anti-tumor agents” (Boehringer Mannheim Italia S.p.A., priority 1988, dated 1992)

Tests used:
[1] = cited from earlier work
tumours in patients = conditions: human, in vivo; cited from earlier work
murine L1210 leukaemia = test: in vivo murine L1210 leukaemia
From the text: (§1) "In vivo" experiments including: a murine leukaemia and murine L1210 leukaemia / cisplatin resistant (i.p. drug administration day 1 after i.p. injection of 10^6 tumour cells day 0); b) advanced M 5076 ovarian carcinoma in female mice (i.m. injection of 5.10^5 cell day 0, drug administration q7d×3) are based on classical models that allow a preliminary evaluation of efficacy and toxicity of the novel agent in comparison with a well-stated reference drug. The evaluated parameters are toxic death, median survival time (T/C %) and long term survivals (60 days).

L1210 resistant line = test: in vivo murine L1210 leukaemia / cisplatin resistant
From the text: as §1

M5076 ovarian carcinoma = test: advanced M 5076 ovarian carcinoma in female mice; assay type: in vivo
From the text: as §1

cervix epithelioma = test: MTT assay, cervix epithelioid carcinoma; assay type: cell-based, human; conditions: in vitro
From the text: The "in vitro" testing procedure has been based on the "MTT assay on human tumor cell lines" (T. Mosmann, J Immunol. Meth., 65, 55, 1983). According to N.C.I screening program for new anticancer drugs, the evaluation of the anti-tumour activity has been performed against groups of cell lines each representing a major category of human malignancy. Human cell (for ex. cervix epithelioid carcinoma, melanoma, fibrosarcoma and vulvar leiomyosarcoma cultures have been adapted to grow in complete RPMI 1640 medium; the compounds were added to 24 hours cultures and incubated for 72 and 160 hours.

[2] = cisplatin at 7 and 10 mg/kg, i.p. day 1

N.N.O=C([O-])C1(C(=O)[O-])CCC1.[Pt+2] [carboplatin]
nephrotoxicity compared with cis-platin ([1]; human, in vivo): less nephrotoxic than cis-platin
activity against lung tumors (non-small cell), osteogenic sarcoma, Hodgkins lymphoma, melanoma and mammary tumors (tumours in patients): a certain, even if limited, activity

N.N.[Cl][Pt][Cl] [cisplatin, cis-diammino-dichloro-platinum, reference compound]
long term survivals (60 days) (murine L1210 leukaemia; [2]): 1/10
median survival time (T/C %) (murine L1210 leukaemia; [2]): 162%
median survival time (T/C %) (L1210 resistant line): 115%
side-effects ([1]; following cisplatin use): important gastrointestinal and renal side-effects, haematologic and neurologic complications (ototoxicity)
activity against head and neck squamous cell carcinoma and further listed tumors (tumours in patients): a certain activity
activity against lung tumors (non-small cell), osteogenic sarcoma, Hodgkins lymphoma, melanoma and mammary tumors (tumours in patients): a certain, even if limited, activity
antitumour activity in patients (tumours in patients): particularly effective in the treatment of genito-urinary tumours, of neck and head tumours
body weight change (M5076 ovarian carcinoma; equieffective dose levels): marked body weight decrease

NCCN.O=C([O-])C(CCOCCOCCO)C(=O)[O-].[Pt+2] [reference compound, cis(1,2-diaminoethane)-(8-hydroxy 3,6-dioxaoctane-1-yl-malonate) platinum (II), reference compound]
toxicity (murine L1210 leukaemia; at the higher dose level): heavily toxic

(2R, 3R, 11R, 12R)-1,4-7,10,13,16-hexaoxacyclooctadecane-2,3,11,12-tetracarboxylate-bis- [compound B, (2R, 3R, 11R, 12R)-1,4-7,10,13,16-hexaoxacyclooctadecane-2,3,11,12-tetracarboxylate-bis-[cis(trans-d,l,-1,2)diamino-cyclohexane)-platinum(II)]]
median survival time (T/C %) (murine L1210 leukaemia; 20 mg/kg dose level, i.p. day 1): 170%
long term survivor values (murine L1210 leukaemia; 20 mg/kg dose level, 60 days): 2
median survival time (T/C %) (murine L1210 leukaemia; 120 mg/kg): 200%
toxic deaths (murine L1210 leukaemia; 120 mg/kg): 2/10
long term survivors (murine L1210 leukaemia; 120 mg/kg, 60 days): 2/10
DL100 (murine L1210 leukaemia; i.p.): over 200 mg/kg
cross resistance with cisplatin (L1210 resistant line): Lack of cross resistance with cisplatin
median survival time (T/C %) (L1210 resistant line): over 160%
tumour growth inhibition potency (M5076 ovarian carcinoma; drug administration q7d×3): comparable with that of cisplatin
body weight change (M5076 ovarian carcinoma; mouse, in vivo): normal body weight increase

cis[(1,1-diaminomethyl-cyclohexane)-3,3-(1,5,8,11,14,17-hexaoxacyclononadecane)cyclobutane]-1,1-dicarboxylate [compound D]
cross resistance with cisplatin (L1210 resistant line): Lack of cross resistance with cisplatin
median survival time (T/C %) (L1210 resistant line): over 160%
antitumour activity compared with cisplatin (cervix epithelioma): more active than cisplatin of about a log. order
